Measurements: US7019028B2, “Endiandric acid H and its derivatives, process for their preparation and use thereof” (Aventis Pharma Deutschland GmbH, priority 2002, dated 2006)

How the values were obtained:
[1] = biological target: T1, c-maf (Mus musculus, UniProt P54843); assay: Bioassay: human IL-4 promoter/luciferase reporter in c-maf/IL-4 luc/NFAT CHO-K1 cell line; type: cell-based, murine; conditions: CHO-K1 cells with c-maf/IL-4 luc/NFAT vectors, 8 hours incubation; read-out: IC50 in the bioassay (inhibition of luciferase expression)
T1 construct: expressed in transfected cells; host or cells: CHO-K1 (monoclonal line c-maf/IL-4 luc/NFAT)
T1 sequence (P54843 1-370): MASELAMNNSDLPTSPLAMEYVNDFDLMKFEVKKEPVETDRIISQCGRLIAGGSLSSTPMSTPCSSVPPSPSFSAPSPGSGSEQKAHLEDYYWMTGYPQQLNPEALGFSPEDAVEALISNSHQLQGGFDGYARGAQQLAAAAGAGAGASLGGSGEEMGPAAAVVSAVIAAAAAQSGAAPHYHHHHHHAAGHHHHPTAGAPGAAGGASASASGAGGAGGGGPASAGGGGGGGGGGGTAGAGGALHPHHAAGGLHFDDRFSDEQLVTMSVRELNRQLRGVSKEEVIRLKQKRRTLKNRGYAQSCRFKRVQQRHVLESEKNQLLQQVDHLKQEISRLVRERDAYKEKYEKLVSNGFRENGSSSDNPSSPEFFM
Procedure: The zipper protein c-maf represents the assay target. It plays an important part in the release of mediators of inflammation, especially IL-4, and thus in the manifestation of inflammatory symptoms in asthma and allergies. c-maf is thus an important therapeutic target molecule for asthma, especially if it has an allergic cause. The activity of c-maf is measured in the assay on the basis of the IL-4 transcription rate. Compounds which interfere with the binding of the two transcription factors c-maf and NFAT lead in this case to a reduced expression of luciferase (read-out) through suppression of the transcription of a human IL-4 promoter/luciferase construct. […]
16 hours before the assay, CHO-K1 cells were harvested by trypsinization, washed once with PBS without Ca and Mg, resuspended in Ham's F-12 medium which additionally contained 10% fetal calf serum, 1% antibiotic/antimycotic, 0.001% Pluronic, 300 μg/ml Geneticin and 300 μg/ml Zeocin, and then quantified using a hemocytometer. […]
After the incubation time, the cells are in each case mixed with 3 μl of Bright-Glow™ luciferase assay reagent (Promega Corporation, Madison, USA) per well. The plates are then placed in the dark for 30 minutes and subsequently measured in a CyBiTM Lumax reader. […]
The inhibition was calculated as follows: [1−(LCSsample−LCSposcontr)/(LCSnegcontr−LCSposcontr)]×100(%)

[2] = Solubility (characterization of endiandric acid H); type: physicochemical
[3] = Stability in the solid state and in solution; type: physicochemical; conditions: solid state; solutions in the pH range between 3 and 8, in particular 4 and 6

O=C(O)C[C@@H]1[C@H]2C=C[C@H]3C(c4ccc5c(c4)OCO5)=C[C@@H](O)[C@@H]4C[C@H]1[C@@H]2[C@H]43 [Endiandric acid H, endiandric acid H]
IC50 [1]: 1.5 µM
Solubility in polar organic solvents ([2]; polar organic solvents): soluble in polar organic solvents
Solubility in water ([2]; water): only slightly soluble in water
Stability [3]: stable in the solid state and in solutions in the pH range between 3 and 8
